Measurements as given in patent US6540977B1, “Cyanidin compositions and therapeutic and diagnostic uses therefor” (Medarex, Inc., priority 1996, dated 2003).

Target: T1, human FcγRI (Homo sapiens, UniProt P12314)
T1 construct: expressed in transfected cells; host or cells: mouse IIA1.6 B cells
Assay: Staining of IIA1.6 B cell transfectants expressing human FcγRI
Assay type: binding
Conditions: unconjugated Cy5; FcγRI transfectants vs untransfected IIA1.6
Method: To assess the specificity of binding of PE-Cy5 conjugates to FcγRI, a series of FcR-transfectants, each transfectant engineered to express one FcR molecular type, was tested. Recipient IIA1.6 cells mouse B cells are devoid of IgG receptors; samples were transfected with each of the genes encoding the different human Fc receptors for IgG (FcγRI, CD64; Van Vugt M J, et al., 1996, Blood 87:3593; FcγRIIa, CD32; FcγRIIb1, CD32, Van den Herik-Oudijk I E, et al., 1995, Blood 85:2202) and for IgA receptor FcαR, CD89 (Morton H C, et al., 1995, J Biol Chem 270:29781) derived from the A20 B cell lymphoma (Morton, H C, et al., supra). Transfectants were stained with different PE-Cy5 mAb conjugates (covalently linked to antibodies to CD3, CD4, or CD8). […]
Untransfected IIA1.6 B-cells and these cells transfected with the gene for human FcγRI (see references, supra), 2×10^5 cells in 20 μl per test, were stained for one hour at 4° C. with 10 μl Cy5. […] All fluorescence experiments were performed using band filter gates for excitation and emission wavelengths appropriate for PE-Cy5 described supra, so that diminished activity for Cy5 in comparison with PE and PE-Cy5 is due to comparatively low absorption by Cy5 at 488 nm.

T1 sequence (P12314 16-374): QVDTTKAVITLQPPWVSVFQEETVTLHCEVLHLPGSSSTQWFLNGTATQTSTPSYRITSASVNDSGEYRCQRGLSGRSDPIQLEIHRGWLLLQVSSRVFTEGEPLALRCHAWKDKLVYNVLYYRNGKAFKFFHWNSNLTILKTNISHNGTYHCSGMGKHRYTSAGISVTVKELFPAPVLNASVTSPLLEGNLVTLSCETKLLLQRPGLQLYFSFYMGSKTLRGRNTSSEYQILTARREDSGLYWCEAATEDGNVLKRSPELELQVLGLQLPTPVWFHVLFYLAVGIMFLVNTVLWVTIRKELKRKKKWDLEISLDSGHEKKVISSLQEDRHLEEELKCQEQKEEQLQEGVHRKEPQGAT

mean fluorescent intensity of transfectants versus control cells: at least an order of magnitude greater
Substance: 5,5′-bis-sulfo-1,1′-(ε-carboxyphenyl)-3,3,3′,3′-tetramethylindodicarbocyanin-disuccinimidyl ester [Cy5]
